IC50 data for 24 compounds are collected here from patent US10052306B2 (LUC THERAPEUTICS, INC., priority 2013, dated 2018).

In assay [1] the target is NR1/NR2B (Homo sapiens (Human), UniProt Q05586+Q13224). Put plainly: Cell assay: FDSS Ca2+ influx inhibition in HEK293 cells expressing NR1/NR2B.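 Note: Fluo-8 Ca2+ signal read on Hamamatsu FDSS 6000 after glutamate, glycine and Ca2+ challenge following 10 min compound preincubation, end/baseline fluorescence ratio compared with MK801 control.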 To be noted: Binned Activity, HEK293 cells expressing NR1/NR2B, Ca2+ influx; binned NR2B NAM IC50.
NR1/NR2B (Homo sapiens (Human), UniProt Q05586+Q13224), sequence (Q13224 27-1484, other chains not shown): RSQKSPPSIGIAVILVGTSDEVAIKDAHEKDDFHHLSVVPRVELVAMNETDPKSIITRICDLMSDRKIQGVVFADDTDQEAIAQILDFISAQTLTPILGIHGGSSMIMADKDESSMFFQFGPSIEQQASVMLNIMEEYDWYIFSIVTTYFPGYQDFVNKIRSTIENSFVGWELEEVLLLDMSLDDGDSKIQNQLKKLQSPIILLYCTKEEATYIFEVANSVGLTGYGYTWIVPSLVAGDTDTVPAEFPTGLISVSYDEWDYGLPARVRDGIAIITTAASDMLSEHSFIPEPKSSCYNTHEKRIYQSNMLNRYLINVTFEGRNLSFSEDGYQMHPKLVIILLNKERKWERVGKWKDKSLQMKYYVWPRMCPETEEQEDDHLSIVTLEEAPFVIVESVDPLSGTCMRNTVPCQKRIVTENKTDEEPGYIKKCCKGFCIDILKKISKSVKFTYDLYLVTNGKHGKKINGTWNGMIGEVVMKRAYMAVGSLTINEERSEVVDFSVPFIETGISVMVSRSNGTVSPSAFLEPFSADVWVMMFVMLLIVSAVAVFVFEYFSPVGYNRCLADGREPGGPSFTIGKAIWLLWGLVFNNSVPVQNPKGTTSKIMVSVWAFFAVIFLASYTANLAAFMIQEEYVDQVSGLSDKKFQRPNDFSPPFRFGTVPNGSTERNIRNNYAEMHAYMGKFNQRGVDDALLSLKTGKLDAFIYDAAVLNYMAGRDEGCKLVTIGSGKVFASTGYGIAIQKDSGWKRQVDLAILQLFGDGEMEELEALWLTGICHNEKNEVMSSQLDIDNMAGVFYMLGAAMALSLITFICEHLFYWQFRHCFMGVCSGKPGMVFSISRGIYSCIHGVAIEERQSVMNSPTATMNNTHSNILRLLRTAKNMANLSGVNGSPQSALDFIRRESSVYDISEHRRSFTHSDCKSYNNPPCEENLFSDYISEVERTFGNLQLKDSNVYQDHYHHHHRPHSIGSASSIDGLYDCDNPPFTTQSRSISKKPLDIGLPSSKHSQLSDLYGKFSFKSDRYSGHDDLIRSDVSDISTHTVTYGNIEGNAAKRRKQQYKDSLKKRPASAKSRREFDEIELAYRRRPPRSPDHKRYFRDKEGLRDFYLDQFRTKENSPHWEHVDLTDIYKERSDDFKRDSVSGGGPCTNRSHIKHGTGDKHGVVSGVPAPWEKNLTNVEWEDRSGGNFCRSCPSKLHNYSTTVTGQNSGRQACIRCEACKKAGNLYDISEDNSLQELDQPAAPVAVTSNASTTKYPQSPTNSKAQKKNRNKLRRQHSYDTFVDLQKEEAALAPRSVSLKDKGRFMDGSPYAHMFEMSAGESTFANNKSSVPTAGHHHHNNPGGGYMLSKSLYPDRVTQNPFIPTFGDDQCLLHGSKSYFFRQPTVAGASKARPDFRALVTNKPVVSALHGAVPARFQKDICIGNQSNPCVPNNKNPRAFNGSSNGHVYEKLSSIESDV
The target of assay [2] is NR1/NR2B (Homo sapiens (Human), UniProt Q13224). The assay is described as above. The following applies: read-out: NR2B NAM IC50; HEK293 cells expressing NR1/NR2B, Ca2+ influx.
NR1/NR2B (Homo sapiens (Human), UniProt Q13224), sequence (Q13224 27-1484, other chains not shown): as above

The structures appear in SMILES notation. Some results are limits rather than exact numbers.

For `COc1ncc(-c2ccc(C(=O)CN3C[C@@H]4C[C@@](O)(Cc5ccccc5)C[C@@H]4C3)cc2)cn1` [Example 279, 2-((3aR,5r,6aS)-5-benzyl-5-hydroxyhexahydrocyclo-penta[c]pyrrol-2(1H)-yl)-1-(4-(2-methoxypyrimidin-5-yl)phenyl)ethanone], the figures for the concentration for half-maximal inhibition (IC50) against NR1/NR2B [1] and at NR1/NR2B [2] were above 10 µM and 10 µM, respectively.
On the same counts, the results for `O=C(CN1C[C@@H]2C[C@@](O)(Cc3ccccc3)C[C@@H]2C1)c1cnc(OCc2ccccc2)cn1` [Example 162, 2-((3aR,5r,6aS)-5-benzyl-5-hydroxyhexahydrocyclo-penta[c]pyrrol-2(1H)-yl)-1-(5-(benzyloxy)pyrazin-2-yl)ethanone] are above 10 µM and 10 µM.
Taken in the same sequence, the figures for `Oc1ccc([C@@H](O)CN2C[C@@H]3C[C@@](O)(Cc4ccc(F)cc4)C[C@@H]3C2)nc1` [Example 255, (3aR,5S,6aS)-5-(4-fluorobenzyl)-2-((S)-2-hydroxy-2-(5-hydroxypyridin-2-yl)ethyl)octahydrocyclo-penta[c]pyrrol-5-ol] were below 0.1 µM and 0.024 µM.
`COc1ccc(NC(=O)N2C[C@H]3C[C@@H](c4ccccc4)C[C@H]3C2)cc1` [Example 99, 2 N-(4-methoxyphenyl)-5-phenylhexahydrocyclo-penta[c]pyrrole-2(1H)-carboxamide]: the values for the IC50 against NR1/NR2B [1] and at NR1/NR2B [2] were above 10 µM and 10 µM, respectively.
Consider `O=C(CN1CC2(C1)CC(O)(Cc1ccccc1)C2)c1ccc(O)cc1` [Example 342, 2-(6-benzyl-6-hydroxy-2-azspiro[3.3]heptan-2-yl)-1-(4-hydroxyphenyl)ethanone], for which the concentration for half-maximal inhibition (IC50) is 1 to 10 µM against NR1/NR2B [1] and 2.67 µM at NR1/NR2B [2].
Take `O=C(Nc1ccccc1C(F)(F)F)N1C[C@@H]2C[C@@](O)(Cc3ccccc3)C[C@@H]2C1` [Example 127, (3aR,5r,6aS)-5-benzyl-5-hydroxy-N-(2-(trifluoromethyl)phenyl) hexahydrocyclopenta[c] pyrrole-2(1H)-carboxamide]: the half-inhibitory concentration (IC50) was above 10 µM against NR1/NR2B [1] and 10 µM on NR1/NR2B [2].
Consider `O=C(CN1C[C@@H]2C[C@@](O)(Cc3c(F)cccc3F)C[C@@H]2C1)c1ccc(O)cc1` [Example 241, 2-[(3aR,5R,6aS)-5-[(2,6-difluorophenyl)methyl]-5-hydroxy-octahydrocyclopenta[c]pyrrol-2-yl]-1-(4-hydroxyphenyl)ethan-1-one], for which the IC50 against NR1/NR2B [1] was 0.1 to 1 µM; at NR1/NR2B [2] it was 0.118 µM.
For `Oc1ccc(C(O)CN2C[C@H]3C[C@@H](c4ccccc4)C[C@H]3C2)cc1` (stereo partly drawn) [Example 115, 4-(1-hydroxy-2-(5-phenylhexahydrocyclo-penta[c]pyrrol-2(1H)-yl)ethyl)phenol], the IC50 is above 10 µM on NR1/NR2B [1] and 10 µM at NR1/NR2B [2].
Consider `O=C(CN1C[C@@H]2C[C@@](O)(Cc3ccccc3)C[C@@H]2C1)c1ccc(-c2ccccc2)cc1` [Example 258, 1-([1,1′-biphenyl]-4-yl)-2-((3aR,5r,6aS)-5-benzyl-5-hydroxyhexahydrocyclo-penta[c]pyrrol-2(1H)-yl)ethanone], for which the IC50 against NR1/NR2B [1] was above 10 µM; at NR1/NR2B [2], 10 µM.
Turning to `COc1ccc(-c2ccc(C(=O)CN3C[C@@H]4C[C@@](O)(Cc5ccccc5)C[C@@H]4C3)cc2)cc1` [Example 259, 2-((3aR,5r,6aS)-5-benzyl-5-hydroxyhexahydrocyclo-penta[c]pyrrol-2(1H)-yl)-1-(4′-methoxy-[1,1′-biphenyl]-4-yl)ethanone], the IC50 on NR1/NR2B [1] is above 10 µM; at NR1/NR2B [2] it was 10 µM.
Take `COc1ccc(C[C@]2(O)C[C@H]3CN(CC(=O)c4ccc(O)cc4)C[C@H]3C2)cc1` [Example 184, 2-[(3aR,5R,6aS)-5-hydroxy-5-[(4-methoxyphenyl)methyl]-octahydrocyclopenta[c]pyrrol-2-yl]-1-(4-hydroxyphenyl)ethan-1-one]: the half-inhibitory concentration (IC50) was below 0.1 µM against NR1/NR2B [1] and 0.0433 µM at NR1/NR2B [2].
As for `O=C(CN1C[C@@H]2C[C@@](O)(Cc3ccc(F)c(F)c3)C[C@@H]2C1)c1ccc(O)cn1` [Example 239, 2-((3aR,5r,6aS)-5-(3,4-difluorobenzyl)-5-hydroxyhexahydrocyclo-penta[c]pyrrol-2(1H)-yl)-1-(5-hydroxypyridin-2-yl)ethanone], the figures for the half-inhibitory concentration (IC50) at NR1/NR2B [1] and on NR1/NR2B [2] were above 10 µM and 10 µM, respectively.
For the compound `O[C@@]1(c2ccc(F)cc2)C[C@H]2CN(c3ccccn3)C[C@H]2C1` [Example 80, 5-(4-fluorophenyl)-2-(pyridin-2-yl)-octahydrocyclopenta[c] pyrrol-5-ol], the IC50 at NR1/NR2B [1] was above 10 µM; on NR1/NR2B [2], 10 µM.
For `O=C(CN1C[C@@H]2C[C@@](O)(Cc3ccccc3F)C[C@@H]2C1)c1ccc(O)cc1` [Example 225, 2-((3aR,5r,6aS)-5-(2-fluorobenzyl)-5-hydroxyhexahydrocyclo-penta[c]pyrrol-2(1H)-yl)-1-(4-hydroxyphenyl)ethanone], the IC50 against NR1/NR2B [1] is below 0.1 µM; on NR1/NR2B [2], 0.0273 µM.
For the compound `O=C(CN1C[C@@H]2C[C@@](O)(Cc3ccc(F)cc3F)C[C@@H]2C1)c1ccc(O)cn1` [Example 230, 2-((3aR,5r,6aS)-5-(2,4-difluorobenzyl)-5-hydroxyhexahydrocyclo-penta[c]pyrrol-2(1H)-yl)-1-(5-hydroxypyridin-2-yl)ethanone], the 50% inhibitory concentration (IC50) was 1 to 10 µM at NR1/NR2B [1] and 2.16 µM at NR1/NR2B [2].
Taken in the same sequence, the figures for `COc1cccc(NC(=O)N2C[C@H]3CC(Cc4ccccc4)C[C@H]3C2)c1` (stereo partly drawn) [Example 294, (3aR,6aS)-5-benzyl-N-(3-methoxyphenyl) hexahydro-cylcopenta[c]pyrrole-2(1H)-carboxamide] were above 10 µM and 10 µM.
On to `O=C(CN1C[C@@H]2C[C@@](O)(Cc3ccc(F)cc3)C[C@@H]2C1)c1ccc(O)cn1` [Example 166, 2-((3aR,5r,6aS)-5-(4-fluorobenzyl)-5-hydroxyhexahydrocyclo-penta[c]pyrrol-2(1H)-yl)-1-(5-hydroxypyridin-2-yl)ethanone], for which the IC50 on NR1/NR2B [1] is 1 to 10 µM; at NR1/NR2B [2] it was 6.4 µM.
Regarding `COc1ccc(C)cc1NC(=O)N1C[C@@H]2C[C@@](O)(Cc3ccccc3)C[C@@H]2C1` [Example 124, (3aR,5r,6aS)-5-benzyl-5-hydroxy-N-(2-methoxy-5-methylphenyl)hexahydro-cyclopenta[c]pyrrole-2(1H)-carboxamide], the half-maximal inhibitory concentration (IC50) at NR1/NR2B [1] was above 10 µM; at NR1/NR2B [2] it was 10 µM.
`O=C(Nc1cccc(C(F)(F)F)c1)N1C[C@H]2C[C@@H](c3ccccc3)C[C@H]2C1` [Example 105, 5-phenyl-N-[3-(trifluoromethyl)phenyl]-octahydrocyclopenta[c] pyrrole-2-carboxamide]: the 50% inhibitory concentration (IC50) against NR1/NR2B [1] is above 10 µM; at NR1/NR2B [2] it was 10 µM.
As for `O=C(CN1C[C@@H]2C[C@@](O)(Cc3ccc(F)cc3)C[C@@H]2C1)c1ccc(O)cc1` [Example 134, 2-((3aR,5r,6aS)-5-(4-fluorobenzyl)-5-hydroxyhexahydrocyclo-penta[c]pyrrol-2(1H)-yl)-1-(4-hydroxyphenyl)ethanone], the half-maximal inhibitory concentration (IC50) on NR1/NR2B [1] is below 0.1 µM; at NR1/NR2B [2], 0.0432 µM.
Consider `Cc1ccccc1[C@]1(O)C[C@H]2CN(C(=O)Nc3ccc(Cl)c(C(F)(F)F)c3)C[C@H]2C1` [Example 24, N-[4-chloro-3-(trifluoromethyl)phenyl]-5-hydroxy-5-(2-methylphenyl)-octahydrocyclopenta[c] pyrrole-2-carboxamide], for which the values for the 50% inhibitory concentration (IC50) on NR1/NR2B [1] and on NR1/NR2B [2] were above 10 µM and 10 µM, respectively.
On to `Cc1cccc(N2C[C@@H]3C[C@@](O)(c4ccc(C(C)(C)C)cc4)C[C@@H]3C2)n1` [Example 89, 5-(4-tert-butylphenyl)-2-(6-methylpyridin-2-yl)-octahydrocyclopenta[c] pyrrol-5-ol], for which the IC50 is above 10 µM on NR1/NR2B [1] and 10 µM at NR1/NR2B [2].
`Cc1cccc(NC(=O)N2C[C@@H]3C[C@@](O)(Cc4ccccc4)C[C@@H]3C2)c1` [Example 129, (3aR,5r,6aS)-5-benzyl-5-hydroxy-N-(m-tolyl)hexahydrocyclo-penta[c]pyrrole-2(1H)-carboxamide]: the IC50 against NR1/NR2B [1] is above 10 µM; on NR1/NR2B [2], 10 µM.
As to `O=C(CN1C[C@@H]2C[C@@](O)(Cc3ccccc3)C[C@@H]2C1)c1ccc(O)c(F)c1` [Example 151, 2-((3aR,5r,6aS)-5-benzyl-5-hydroxyhexahydrocyclo-penta[c]pyrrol-2(1H)-yl)-1-(3-fluoro-4-hydroxyphenyl)ethanone], the IC50 is 0.1 to 1 µM against NR1/NR2B [1] and 0.372 µM on NR1/NR2B [2].

In general, IC50 refers to the concentration needed to halve the response being measured.
